Results: patent US12208088B2 (Genentech, Inc., priority 2018, dated 2025)

target: HPK1 (Homo sapiens (Human), UniProt Q92918); assay: HPK1 Lantha binding assay ("Lanth"); details: binding assays; Morrison Ki fit
Procedure, shortened: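 TR-FRET binding competition using 2 nM HPK1, 2 nM Eu-anti-GST antibody and 15 nM Tracer222 at 23 °C. Compound was incubated 1 h with enzyme and antibody, then 1 h after tracer addition, with an 11-point 5-fold dilution series. Ki obtained from a Morrison fit that corrects for tracer concentration and Kd.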

Sequence of HPK1 (Q92918 1-346 limits assumed): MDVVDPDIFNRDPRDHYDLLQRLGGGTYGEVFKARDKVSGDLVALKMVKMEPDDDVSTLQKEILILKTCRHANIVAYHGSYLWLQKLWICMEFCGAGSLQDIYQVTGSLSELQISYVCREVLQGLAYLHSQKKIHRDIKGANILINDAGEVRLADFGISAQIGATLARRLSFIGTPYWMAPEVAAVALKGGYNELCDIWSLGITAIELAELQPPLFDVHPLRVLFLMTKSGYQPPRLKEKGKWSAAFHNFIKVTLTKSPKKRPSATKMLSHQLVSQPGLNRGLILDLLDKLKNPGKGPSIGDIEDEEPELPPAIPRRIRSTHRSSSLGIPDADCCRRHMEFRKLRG

Structure (SMILES) | Ki
CN(C)C(=O)c1c(N)ccc(-c2cnc3c(c2Cl)C2(CCC(=CS(C)(=O)=O)C2)CN3)c1F (centres unmarked) [Compound 103, 6-Amino-3-(4′-chloro-3-((methylsulfonyl)methylene)-1′,2′-dihydrospiro[cyclopentane-1,3′-pyrrolo[2,3-b]pyridin]-5′-yl)-2-fluoro-N,N-dimethylbenzamide] | 24.1 nM
CN(C)C(=O)c1c(N)ccc(-c2cnc3c(c2Cl)C2(CCC(=CC#N)C2)CN3)c1F (centres unmarked) [Compound 104, 6-Amino-3-(4′-chloro-3-(cyanomethylene)-1′,2′-dihydrospiro[cyclopentane-1,3′-pyrrolo[2,3-b]pyridin]-5′-yl)-2-fluoro-N,N-dimethylbenzamide] | 13.1 nM
CN(C)C(=O)c1c(N)ccc(-c2cnc3c(c2Cl)[C@]2(CC[C@](O)(CC#N)C2)CN3)c1F [Compound 109a, 6-Amino-3-((1R,3R)-4′-chloro-3-(cyanomethyl)-3-hydroxy-1′,2′-dihydrospiro[cyclopentane-1,3′-pyrrolo[2,3-b]pyridin]-5′-yl)-2-fluoro-N,N-dimethylbenzamide] | 25.3 nM
CN(C)C(=O)c1c(N)ccc(-c2cnc3c(c2Cl)C2(CCC(=CC(N)=O)C2)CN3)c1F (centres unmarked) [Compound 110, 6-Amino-3-(3-(2-amino-2-oxoethylidene)-4′-chloro-1′,2′-dihydrospiro[cyclopentane-1,3′-pyrrolo[2,3-b]pyridin]-5′-yl)-2-fluoro-N,N-dimethylbenzamide] | 4.5 nM
CN(C)C(=O)c1c(N)ccc(-c2cnc3c(c2)[C@]2(CC[C@H](O)CC2)CN3)c1F [Compound 111a, 6-Amino-2-fluoro-3-((1s,4s)-4-hydroxy-1′,2′-dihydrospiro[cyclohexane-1,3′-pyrrolo[2,3-b]pyridin]-5′-yl)-N,N-dimethylbenzamide] | 48.3 nM
CN(C)C(=O)c1c(N)ccc(-c2cnc3c(c2)[C@]2(CC[C@@H](O)CC2)CN3)c1F [Compound 111b, 6-Amino-2-fluoro-3-((1r,4r)-4-hydroxy-1′,2′-dihydrospiro[cyclohexane-1,3′-pyrrolo[2,3-b]pyridin]-5′-yl)-N,N-dimethylbenzamide] | 172 nM
CN(C)C(=O)c1c(N)ccc(-c2cnc3c(c2Cl)C2(C=C(c4cccnc4)CC2)CN3)c1F (centres unmarked) [Compound 112, 6-Amino-3-(4′-chloro-3-(pyridin-3-yl)-1′,2′-dihydrospiro[cyclopentane-1,3′-pyrrolo[2,3-b]pyridin]-2-en-5′-yl)-2-fluoro-N,N-dimethylbenzamide] | 6.6 nM
CN(C)C(=O)c1c(N)ccc(-c2cnc3c(c2Cl)C2(CCC(CC#N)C2)CN3)c1F (centres unmarked) [Compound 130, 6-Amino-3-(4′-chloro-3-(cyanomethyl)-1′,2′-dihydrospiro[cyclopentane-1,3′-pyrrolo[2,3-b]pyridin]-5′-yl)-2-fluoro-N,N-dimethylbenzamide] | 4 nM
CN(Cc1cnn(C)c1)C(=O)c1cccc(-c2cnc3c(c2)C2(CC2)CN3)c1F [Compound 136, 3-(1′,2′-dihydrospiro[cyclopropane-1,3′-pyrrolo[2,3-b]pyridin]-5′-yl)-2-fluoro-N-methyl-N-((1-methyl-1H-pyrazol-4-yl)methyl)benzamide] | 15.9 nM
CCN(C(=O)c1cccc(-c2cnc3c(c2)C2(CC2)CN3)c1F)C1CCC1 [Compound 137, N-cyclobutyl-3-(1′,2′-dihydrospiro[cyclopropane-1,3′-pyrrolo[2,3-b]pyridin]-5′-yl)-N-ethyl-2-fluorobenzamide] | 34.1 nM
CN(CCC#N)C(=O)c1cccc(-c2cnc3c(c2)C2(CC2)CN3)c1F [Compound 138, N-(2-cyanoethyl)-3-(1,2′-dihydrospiro[cyclopropane-1,3′-pyrrolo[2,3-b]pyridin]-5′-yl)-2-fluoro-N-methylbenzamide] | 38.6 nM
CC(C)C1CN(C(=O)c2cccc(-c3cnc4c(c3)C3(CC3)CN4)c2F)C1 [Compound 139, (3-(1′,2′-dihydrospiro[cyclopropane-1,3′-pyrrolo[2,3-b]pyridin]-5′-yl)-2-fluorophenyl)(3-isopropylazetidin-1-yl)methanone] | 120 nM
CN(C(=O)c1cccc(-c2cnc3c(c2)C2(CC2)CN3)c1F)c1cnn(C)c1 [Compound 141, 3-(1′,2′-dihydrospiro[cyclopropane-1,3′-pyrrolo[2,3-b]pyridin]-5′-yl)-2-fluoro-N-methyl-N-(1-methyl-1H-pyrazol-4-yl)benzamide] | 126 nM
CC1CN(C(=O)c2cccc(-c3cnc4c(c3)C3(CC3)CN4)c2F)C1 [Compound 142, (3-(1′,2′-dihydrospiro[cyclopropane-1,3′-pyrrolo[2,3-b]pyridin]-5′-yl)-2-fluorophenyl)(3-methylazetidin-1-yl)methanone] | 116 nM
CN(C)C(=O)c1c(N)ccc(-c2cnc3c(c2Cl)C2(CCC(c4cccnc4)C2)CN3)c1F (centres unmarked) [Compound 145, 6-Amino-3-(4′-chloro-3-(pyridin-3-yl)-1′,2′-dihydrospiro[cyclopentane-1,3′-pyrrolo[2,3-b]pyridin]-5′-yl)-2-fluoro-N,N-dimethylbenzamide] | 9.37 nM
O=C(c1cccc(-c2cnc3c(c2)C2(CC2)CN3)c1F)N1CCC12COC2 [Compound 147, (3-(1′,2′-dihydrospiro[cyclopropane-1,3′-pyrrolo[2,3-b]pyridin]-5′-yl)-2-fluorophenyl)(6-oxa-1-azaspiro[3.3]heptan-1-yl)methanone] | 61.3 nM
CN(C)C(=O)c1cccc(-c2cnc3c(c2)C2(CC2)CN3)c1F [Compound 149, 3-(1′,2′-dihydrospiro[cyclopropane-1,3′-pyrrolo[2,3-b]pyridin]-5′-yl)-2-fluoro-N,N-dimethylbenzamide] | 33.5 nM

Continued, values first:

Ki | Structure (SMILES)
39 nM | COc1c(-c2ccc(N)c(C(=O)N(C)C)c2F)cnc2c1[C@]1(CC[C@@H](O)CC1)CN2 [Compound 113a, 6-Amino-2-fluoro-3-((1r,4r)-4-hydroxy-4′-methoxy-1′,2′-dihydrospiro[cyclohexane-1,3′-pyrrolo[2,3-b]pyridin]-5′-yl)-N,N-dimethylbenzamide]
15.1 nM | COc1c(-c2ccc(N)c(C(=O)N(C)C)c2F)cnc2c1[C@]1(CC[C@H](O)CC1)CN2 [Compound 113b, 6-Amino-2-fluoro-3-((1s,4s)-4-hydroxy-4′-methoxy-1′,2′-dihydrospiro[cyclohexane-1,3′-pyrrolo[2,3-b]pyridin]-5′-yl)-N,N-dimethylbenzamide]
304 nM | CN(C)C(=O)c1c(N)ccc(-c2cnc3c(c2Cl)[C@]2(CCNC(=O)C2)CN3)c1F [Compound 122a, (R)-6-Amino-3-(4′-chloro-2-oxo-1′,2′-dihydrospiro[piperidine-4,3′-pyrrolo[2,3-b]pyridin]-5′-yl)-2-fluoro-N,N-dimethylbenzamide]
26 nM | CN(C)C(=O)c1c(N)ccc(-c2cnc3c(c2Cl)[C@@]2(CCNC(=O)C2)CN3)c1F [Compound 122b, (S)-6-Amino-3-(4′-chloro-2-oxo-1′,2′-dihydrospiro[piperidine-4,3′-pyrrolo[2,3-b]pyridin]-5′-yl)-2-fluoro-N,N-dimethylbenzamide]
39.6 nM | CN(C)C(=O)c1c(N)ccc(-c2cnc3c(c2Cl)[C@]2(CC[C@@H](O)CC2)CN3)c1F [Compound 144a, 6-Amino-3-((1r,4r)-4′-chloro-4-hydroxy-1′,2′-dihydrospiro[cyclohexane-1,3′-pyrrolo[2,3-b]pyridin]-5′-yl)-2-fluoro-N,N-dimethylbenzamide]
9.98 nM | CN(C)C(=O)c1c(N)ccc(-c2cnc3c(c2Cl)[C@]2(CC[C@H](O)CC2)CN3)c1F [Compound 144b, 6-Amino-3-((1s,4s)-4′-chloro-4-hydroxy-1′,2′-dihydrospiro[cyclohexane-1,3′-pyrrolo[2,3-b]pyridin]-5′-yl)-2-fluoro-N,N-dimethylbenzamide]
9.94 nM | CN(C)C(=O)c1c(N)ccc(-c2cnc3c(c2Cl)[C@]2(CC[C@@H](c4cccnc4)C2)CN3)c1F [Compound 145a, 6-Amino-3-((1R,3R)-4′-chloro-3-(pyridin-3-yl)-1′,2′-dihydrospiro[cyclopentane-1,3′-pyrrolo[2,3-b]pyridin]-5′-yl)-2-fluoro-N,N-dimethylbenzamide]
10.4 nM | CN(C)C(=O)c1c(N)ccc(-c2cnc3c(c2Cl)[C@]2(CC[C@H](c4cccnc4)C2)CN3)c1F [Compound 145c, 6-Amino-3-((1R,3S)-4′-chloro-3-(pyridin-3-yl)-1′,2′-dihydrospiro[cyclopentane-1,3′-pyrrolo[2,3-b]pyridin]-5′-yl)-2-fluoro-N,N-dimethylbenzamide]
19.9 nM | CN(C)C(=O)c1c(N)ccc(-c2cnc3c(c2Cl)[C@@]2(CC[C@@H](c4cccnc4)C2)CN3)c1F [Compound 145d, 6-Amino-3-((1S,3R)-4′-chloro-3-(pyridin-3-yl)-1′,2′-dihydrospiro[cyclopentane-1,3′-pyrrolo[2,3-b]pyridin]-5′-yl)-2-fluoro-N,N-dimethylbenzamide]
2.21 nM | Cc1cnn([C@H]2CC[C@]3(CC2)CNc2ncc(-c4ccc(N)c(C(=O)N(C)C)c4F)c(Cl)c23)c1 [Compound 148a, 6-Amino-3-((1s,4s)-4′-chloro-4-(4-methyl-1H-pyrazol-1-yl)-1′,2′-dihydrospiro[cyclohexane-1,3′-pyrrolo[2,3-b]pyridin]-5′-yl)-2-fluoro-N,N-dimethylbenzamide]
14.2 nM | N#C[C@H]1CCCN1C(=O)c1cccc(-c2cnc3c(c2)C2(CC2)CN3)c1F [Compound 154a, (R)-1-(3-(1′,2′-dihydrospiro[cyclopropane-1,3′-pyrrolo[2,3-b]pyridin]-5′-yl)-2-fluorobenzoyl)pyrrolidine-2-carbonitrile]
56.5 nM | Cc1ccnn1[C@H]1CC[C@@]2(CNc3ncc(-c4ccc(N)c(C(=O)N(C)C)c4F)c(Cl)c32)C1 [Compound 160a, 6-Amino-3-((1R,3S)-4′-chloro-3-(5-methyl-1H-pyrazol-1-yl)-1′,2′-dihydrospiro[cyclopentane-1,3′-pyrrolo[2,3-b]pyridin]-5′-yl)-2-fluoro-N,N-dimethylbenzamide]
